Measurements as given in patent US5210193A, “Piperazine derivatives” (American Cyanamid Company, priority 1990, dated 1993).
Converted amounts (≈) assume the structure as drawn. Like-named read-outs stand apart in the source and are kept apart here.

Legend:
Assay in all cases: in vitro antibacterial MIC, agar plate dilution
Assay type in all cases: cell-based
[1] = system: Proteus rettgeri IO 83-21; details: Providencia rettgeri, IO8321, 18 h, 35° C., read-out: MIC
Outline: (§1)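 Agar plate dilution on Mueller-Hinton agar, inoculum approximately 10^4 CFU per organism applied with a Steers replicator. MIC (mcg/ml) is the lowest compound concentration inhibiting visible growth after 18 hours at 35° C.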

[2] = system: Pseudomonas aeruginosa VGH 84-3; details: Pseudomonas aeruginosa, VGH843, 18 h, 35° C., read-out: MIC
Outline: as §1

[3] = system: Enterobacter cloacae K 84-10; details: Enterobacter cloacae, K8410, 18 h, 35° C., read-out: MIC
Outline: as §1

[4] = system: Morganella morganii VHG 84-12; details: Morganella morganii, VHG8412, 18 h, Morganella morganii VHG 84-12 (VGH 84-12 for Example 131), 35° C., read-out: MIC
Outline: as §1

[5] = system: Escherichia coli VGH 84-19; details: Escherichia coli, VGH8419, 18 h, 35° C., read-out: MIC
Outline: as §1

[6] = system: Providencia stuarti CMC 83-3; details: Providencia, CMC833, 18 h, 35° C., read-out: MIC
Outline: as §1

[7] = system: Escherichia coli CMC 84-11; details: Escherichia coli, CMC8411, 18 h, 35° C., read-out: MIC
Outline: as §1

[8] = system: Morganella morganii CMC 84-37; details: Morganella morganii, CMC8437, 18 h, 35° C., read-out: MIC
Outline: as §1

[9] = system: Staphylococcus aureus ATTC 29213; details: 35° C.
Outline: as §1

[10] = system: Streptococcus faecalis VGH 84-69; details: Enterococcus faecalis, VGH8469, 18 h, 35° C., read-out: MIC
Outline: as §1

[11] = system: Proteus rettgeri CMC 84-41; details: Providencia rettgeri, CMC8441, 18 h, 35° C., read-out: MIC
Outline: as §1

[12] = system: Staphylococcus aureus VGH 84-45; details: Staphylococcus aureus, VGH8445, 18 h, 35° C., read-out: MIC
Outline: as §1

[13] = system: Serratia marcescens VGH 84-30; details: Serratia marcescens, VGH8430, 18 h, 35° C., read-out: MIC
Outline: as §1

[14] = system: Pseudomonas aeruginosa K 84-16; details: Pseudomonas aeruginosa, K8416, 18 h, 35° C., read-out: MIC
Outline: as §1

[15] = system: Serratia marcescens MOR 84-41; details: Serratia marcescens, MOR8441, 18 h, 35° C., read-out: MIC
Outline: as §1

[16] = system: Escherichia coli LL 311; details: Escherichia coli, LL311, 18 h, 35° C., read-out: MIC
Outline: as §1

[17] = system: Klebsiella pneumoniae CMC 84-31; details: Klebsiella pneumoniae, CMC8431, 18 h, 35° C., read-out: MIC
Outline: as §1

[18] = system: Streptococcus faecalis CMC 83-120; details: Enterococcus faecalis, CMC83120, 18 h, 35° C., read-out: MIC
Outline: as §1

[19] = system: Klebsiella pneumoniae MOR 84-24; details: Klebsiella pneumoniae, MOR8424, 18 h, 35° C., read-out: MIC
Outline: as §1

[20] = system: Streptococcus faecalis UCI 85-19; details: Enterococcus faecalis, UCI8519, 18 h, 35° C., read-out: MIC
Outline: as §1

[21] = system: Pseudomonas aeruginosa CMC 83-20; details: Pseudomonas aeruginosa, CMC8320, 18 h, 35° C., read-out: MIC
Outline: as §1

[22] = system: Staphylococcus aureus K 82-26; details: Staphylococcus aureus, K8226, 18 h, 35° C., read-out: MIC
Outline: as §1

[23] = system: Escherichia coli CMC 84-50; details: Escherichia coli, CMC8450, 18 h, 35° C., read-out: MIC
Outline: as §1

[24] = system: Serratia marcescens CMC 83-74; details: Serratia marcescens, CMC8374, 18 h, 35° C., read-out: MIC
Outline: as §1

[25] = system: Serratia marcescens K 84-18; details: Serratia marcescens, K8418, 18 h, 35° C., read-out: MIC
Outline: as §1

[26] = system: Pseudomonas aeruginosa VGH 84-4; details: Pseudomonas aeruginosa, VGH844, 18 h, 35° C., read-out: MIC
Outline: as §1

[27] = system: Streptococcus faecalis UCI 85-30; details: Enterococcus faecalis, UCI8530, 18 h, 35° C., read-out: MIC
Outline: as §1

[28] = system: Staphylococcus aureus VGH 84-47; details: Staphylococcus aureus, VGH8447, 18 h, 35° C., read-out: MIC
Outline: as §1

[29] = system: Enterobacter cloacae VGH 84-39; details: Enterobacter cloacae, VGH8439, 18 h, 35° C., read-out: MIC
Outline: as §1

[30] = system: Morganella morganii MOR 84-45; details: Morganella morganii, MOR8445, 18 h, 35° C., read-out: MIC
Outline: as §1

[31] = system: Enterobacter cloacae MOR 84-30; details: Enterobacter cloacae, MOR8430, 18 h, 35° C., read-out: MIC
Outline: as §1

[32] = Staphylococcus aureus, ATTC29213, 18 h, read-out: MIC

Row | SMILES | MIC [1] [µg/mL] | MIC [2] [µg/mL] | MIC [3] [µg/mL] | MIC [4] [µg/mL] | MIC [5] [µg/mL] | MIC [6] [µg/mL] | MIC [7] [µg/mL] | MIC [8] [µg/mL] | MIC [9, 32] [µg/mL] | MIC [10] [µg/mL] | MIC [11] [µg/mL] | MIC [12] [µg/mL] | MIC [13] [µg/mL] | MIC [14] [µg/mL] | MIC [15] [µg/mL] | MIC [16] [µg/mL] | MIC [17] [µg/mL] | MIC [18] [µg/mL] | MIC [19] [µg/mL] | MIC [20] [µg/mL] | further results
1 | CCn1cc(C(=O)O)c(=O)c2cc(F)c(N3CCNC(c4cccnc4)C3)cc21 (stereo not shown) [Example 122] | 4 (≈ 10.1 µM) | > 16 | 1 (≈ 2.52 µM) | 8 (≈ 20.2 µM) | 1 (≈ 2.52 µM) | > 16 | 0.25 (≈ 0.631 µM) | 0.25 (≈ 0.631 µM) | 0.5 (≈ 1.26 µM) | 8 (≈ 20.2 µM) | 0.25 (≈ 0.631 µM) | 0.25 (≈ 0.631 µM) | 32 (≈ 80.7 µM) | > 16 | 4 (≈ 10.1 µM) | 0.25 (≈ 0.631 µM) | 4 (≈ 10.1 µM) | 8 (≈ 20.2 µM) | 4 (≈ 10.1 µM) | 4 (≈ 10.1 µM) | MIC ([9]; 18 hours): 1 µg/mL (≈ 2.52 µM); MIC [21]: > 16 µg/mL; MIC [22]: 1 µg/mL (≈ 2.52 µM); MIC [23]: 2 µg/mL (≈ 5.05 µM); MIC [24]: > 16 µg/mL; MIC [25]: 1 µg/mL (≈ 2.52 µM); MIC [26]: 32 µg/mL (≈ 80.7 µM); MIC [27]: 8 µg/mL (≈ 20.2 µM); MIC [28]: 1 µg/mL (≈ 2.52 µM); MIC [29]: 2 µg/mL (≈ 5.05 µM); MIC [30]: 1 µg/mL (≈ 2.52 µM); MIC [31]: 16 µg/mL (≈ 40.4 µM)
2 | O=C(O)c1cn(C2CC2)c2cc(N3CCNC(c4cc[nH]n4)C3)c(F)cc2c1=O (stereo not shown) [Example 121, 1-Cyclopropyl-6-fluoro-1,4-dihydro-4-oxo-7-[3-(1H-pyrazol-3-yl)-1-piperazinyl]-3-quinolinecarboxylic acid] | 1 (≈ 2.52 µM) | > 16 | 0.25 (≈ 0.629 µM) | 4 (≈ 10.1 µM) | 0.25 (≈ 0.629 µM) | > 16 | 0.06 (≈ 0.151 µM) | 1 (≈ 2.52 µM) | 1 (≈ 2.52 µM) | 2 (≈ 5.03 µM) | 0.5 (≈ 1.26 µM) | 0.5 (≈ 1.26 µM) | 32 (≈ 80.5 µM) | > 16 | 1 (≈ 2.52 µM) | 0.12 (≈ 0.302 µM) | 0.25 (≈ 0.629 µM) | 5 (≈ 12.6 µM) | 1 (≈ 2.52 µM) | 2 (≈ 5.03 µM) | MIC ([9]; 18 hours): 2 µg/mL (≈ 5.03 µM); MIC [21]: 16 µg/mL (≈ 40.3 µM); MIC [22]: 1 µg/mL (≈ 2.52 µM); MIC [23]: 0.25 µg/mL (≈ 0.629 µM); MIC [24]: > 16 µg/mL; MIC [25]: 0.25 µg/mL (≈ 0.629 µM); MIC [26]: 8 µg/mL (≈ 20.1 µM); MIC [27]: 2 µg/mL (≈ 5.03 µM); MIC [28]: 1 µg/mL (≈ 2.52 µM); MIC [29]: 0.5 µg/mL (≈ 1.26 µM); MIC [30]: 0.25 µg/mL (≈ 0.629 µM); MIC [31]: 4 µg/mL (≈ 10.1 µM)
3 | CN1CCN(c2cc3c(cc2F)c(=O)c(C(=O)O)cn3C2CC2)CC1C1CC1 (stereo not shown) [Example 125, 1-Cyclopropyl-7-(3-cyclopropyl-4-methyl-1-piperazinyl) -6-fluoro-1,4-dihydro-4-oxo-3-quinolinecarboxylic acid] | 1 (≈ 2.59 µM) | > 16 | 0.06 (≈ 0.156 µM) | 1 (≈ 2.59 µM) | 0.25 (≈ 0.649 µM) | > 16 | 0.06 (≈ 0.156 µM) | 0.25 (≈ 0.649 µM) | 0.25 (≈ 0.649 µM) | 4 (≈ 10.4 µM) | 0.25 (≈ 0.649 µM) | 0.12 (≈ 0.311 µM) | 8 (≈ 20.8 µM) | 16 (≈ 41.5 µM) | 1 (≈ 2.59 µM) | 0.06 (≈ 0.156 µM) | 0.25 (≈ 0.649 µM) | 4 (≈ 10.4 µM) | 0.5 (≈ 1.3 µM) | 4 (≈ 10.4 µM) | MIC ([9]; 18 hours): 0.5 µg/mL (≈ 1.3 µM); MIC [21]: 16 µg/mL (≈ 41.5 µM); MIC [22]: 4 µg/mL (≈ 10.4 µM); MIC [23]: 0.25 µg/mL (≈ 0.649 µM); MIC [24]: > 16 µg/mL; MIC [25]: 0.5 µg/mL (≈ 1.3 µM); MIC [26]: 8 µg/mL (≈ 20.8 µM); MIC [27]: 8 µg/mL (≈ 20.8 µM); MIC [28]: 0.5 µg/mL (≈ 1.3 µM); MIC [29]: 0.5 µg/mL (≈ 1.3 µM); MIC [30]: 0.5 µg/mL (≈ 1.3 µM); MIC [31]: 2 µg/mL (≈ 5.19 µM)
4 | CN1CCN(c2c(F)c(F)c3c(=O)c(C(=O)O)cn(C4CC4)c3c2F)CC1 [Example 111, 1Cyclopropyl-5,6,8-trifluoro-1,4-dihydro-7-(4-methyl-1-piperazinyl) -4-oxo-3-quinolinecarboxylic acid] | 0.008 (≈ 0.021 µM) | 8 (≈ 21 µM) | 0.004 (≈ 0.0105 µM) | 0.06 (≈ 0.157 µM) | 0.004 (≈ 0.0105 µM) | 4 (≈ 10.5 µM) | 0.015 (≈ 0.0393 µM) | 0.03 (≈ 0.0787 µM) | 0.25 (≈ 0.656 µM) | 2 (≈ 5.24 µM) | 0.03 (≈ 0.0787 µM) | 0.12 (≈ 0.315 µM) | 2 (≈ 5.24 µM) | 4 (≈ 10.5 µM) | 0.06 (≈ 0.157 µM) | 0.015 (≈ 0.0393 µM) | 0.015 (≈ 0.0393 µM) | 2 (≈ 5.24 µM) | 0.06 (≈ 0.157 µM) | 4 (≈ 10.5 µM) | MIC [21]: 4 µg/mL (≈ 10.5 µM); MIC [22]: 1 µg/mL (≈ 2.62 µM); MIC [23]: 0.004 µg/mL (≈ 0.0105 µM); MIC [24]: 4 µg/mL (≈ 10.5 µM); MIC [25]: 0.12 µg/mL (≈ 0.315 µM); MIC [26]: 2 µg/mL (≈ 5.24 µM); MIC [27]: 2 µg/mL (≈ 5.24 µM); MIC [28]: 0.12 µg/mL (≈ 0.315 µM); MIC [29]: 0.004 µg/mL (≈ 0.0105 µM); MIC [30]: 0.004 µg/mL (≈ 0.0105 µM); MIC [31]: 0.06 µg/mL (≈ 0.157 µM)
